Measured values from PMC10435442, “Developing multitarget coumarin based anti-breast cancer agents: synthesis and molecular modeling study” (Scientific Reports, 2023).
≈ marks a conversion by molar mass, not a printed value. Where “and” joins values, the source holds several entries; their conditions need not be identical. Identical values can stand only once. Like-named read-outs stand apart in the source and are kept apart here.

Legend:
MCF-7 = assay: MTT cytotoxicity assay, MCF-7; conditions: for IC50: Homo sapiens; for anti-proliferative activity against MCF-7 (in words): SAR discussion
MCF-10A = assay: MTT cytotoxicity assay, nonmalignant MCF-10A; conditions: for IC50: read-out: MCF-10A IC50, MTT, nonmalignant MCF-10A;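 as to all read-outs here: MTT assay with absorbance read at 570 nm after 48 h exposure of cells to serial compound concentrations at 37 °C, testing selectivity against nonmalignant versus cancer cells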
in vitro = conditions: human
MDA-MB-231 = assay: MTT cytotoxicity assay, MDA-MB-231; conditions: for IC50: Homo sapiens; for % viability: MDA
EGFR = EGFR (Homo sapiens, UniProt P00533); assay: In vitro EGFR enzyme inhibition assay (ELISA); conditions: for EGFR %inh: lab report 01-11-2021
[1] = MCF7, read-out: cytotoxicity_IC50 mcf7
[2] = MDA-MB-231, read-out: MDA-MBA-231 IC50
[3] = MDA-MB-231, read-out: cytotoxicity_IC50 MDA
[4] = MCF-10A cells (nonmalignant breast)
[5] = EGFR IC50, lab report 01-11-2021, 10 compounds

EGFR, sequence (P00533 25-1210): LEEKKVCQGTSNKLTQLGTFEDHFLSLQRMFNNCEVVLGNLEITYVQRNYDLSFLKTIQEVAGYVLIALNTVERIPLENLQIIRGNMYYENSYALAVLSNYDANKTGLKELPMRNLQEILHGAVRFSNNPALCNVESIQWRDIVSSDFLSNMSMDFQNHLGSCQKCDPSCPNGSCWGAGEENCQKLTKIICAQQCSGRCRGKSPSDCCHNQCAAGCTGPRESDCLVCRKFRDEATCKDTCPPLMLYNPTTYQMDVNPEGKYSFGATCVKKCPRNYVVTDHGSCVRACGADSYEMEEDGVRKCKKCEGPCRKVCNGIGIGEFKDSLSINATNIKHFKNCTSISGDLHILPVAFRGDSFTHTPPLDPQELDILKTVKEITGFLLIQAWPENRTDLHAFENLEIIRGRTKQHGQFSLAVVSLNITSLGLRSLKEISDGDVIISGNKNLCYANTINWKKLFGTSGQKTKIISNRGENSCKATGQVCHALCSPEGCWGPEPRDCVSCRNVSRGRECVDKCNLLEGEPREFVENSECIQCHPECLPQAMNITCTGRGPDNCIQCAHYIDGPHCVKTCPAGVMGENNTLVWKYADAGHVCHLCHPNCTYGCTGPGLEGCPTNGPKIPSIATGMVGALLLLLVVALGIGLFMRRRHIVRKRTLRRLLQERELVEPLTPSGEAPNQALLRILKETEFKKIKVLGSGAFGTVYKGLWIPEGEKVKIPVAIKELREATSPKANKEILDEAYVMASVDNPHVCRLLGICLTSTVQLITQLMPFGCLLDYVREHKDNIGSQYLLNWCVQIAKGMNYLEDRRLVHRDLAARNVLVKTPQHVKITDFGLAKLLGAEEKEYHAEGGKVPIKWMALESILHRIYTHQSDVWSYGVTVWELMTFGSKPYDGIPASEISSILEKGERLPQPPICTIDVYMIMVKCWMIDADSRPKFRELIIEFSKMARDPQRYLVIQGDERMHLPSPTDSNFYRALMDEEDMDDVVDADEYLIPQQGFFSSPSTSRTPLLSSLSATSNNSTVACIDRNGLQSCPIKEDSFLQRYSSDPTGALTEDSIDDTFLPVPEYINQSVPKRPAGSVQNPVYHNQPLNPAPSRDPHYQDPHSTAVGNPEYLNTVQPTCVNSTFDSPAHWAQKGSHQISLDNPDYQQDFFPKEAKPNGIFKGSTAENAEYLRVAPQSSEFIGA

Compound | IC50 at 48 h (in vitro; [4]) | IC50 (MCF-7; MCF7, read-out: MCF-7 IC50) | IC50 (MCF-7; [1]) | % viability (MCF-7; MCF7, 0.4ug) | % viability (MCF-7; MCF7, 1.6ug) | % viability (MCF-7; MCF7, 6.3ug) | % viability (MCF-7; MCF7, 25ug) | % viability (MCF-7; MCF7, 100ug) | IC50 (MCF-10A) | IC50 (MDA-MB-231; [2]) | IC50 (MDA-MB-231; [3]) | % viability (MDA-MB-231; 0.4ug (log conc. -0.41)) | % viability (MDA-MB-231; 1.6ug (log conc. 0.19)) | % viability (MDA-MB-231; 6.25ug (log conc. 0.8)) | % viability (MDA-MB-231; 25ug (log conc. 1.4)) | % viability (MDA-MB-231; 100ug (log conc. 2)) | viability at 48 h, 0.4 ug (in vitro; [4]) | viability at 48 h, 1.6 ug (in vitro; [4]) | viability at 48 h, 6.25 ug (in vitro; [4]) | viability at 48 h, 25 ug (in vitro; [4]) | other results
O=c1cc(CCl)c2ccc(O)cc2o1 [Compound 1, 4-chloromethyl-7-hydroxycoumarin] |  | 115 ± 1.47 µM | 24.3 ± 1.47 µg/mL | 77.743% and 77.74% | 67.269% and 67.27% | 59.663% and 59.66% | 49.002% and 49% | 41.1471% and 41.15% | 442 ± 4.53 µM | 354 ± 4.06 µM | 74.5 ± 4.06 µg/mL | 88.396% and 88.4% | 77.133% and 77.13% | 69.01% | 56.655% and 56.66% | 48.4642% and 48.46% |  |  |  |  | anti-proliferative activity against MCF-7 (in words) (MCF-7): devoid of activity; % viability (MCF-10A; MCF10a, 0.4ug (log conc. -0.41)): 84.01%; % viability (MCF-10A; MCF10a, 1.6ug (log conc. 0.19)): 75.58%; % viability (MCF-10A; MCF10a, 6.25ug (log conc. 0.8)): 67.49%; % viability (MCF-10A; MCF10a, 25ug (log conc. 1.4)): 56.99%; % viability (MCF-10A; MCF10a, 100ug (log conc. 2)): 50.09%; IC50 at 48 h (in vitro): 93 ± 4.53 µg/mL (≈ 442 µM); viability at 48 h, 0.4 ug (in vitro): 84%; viability at 48 h, 1.6 ug (in vitro): 75.6%; viability at 48 h, 6.25 ug (in vitro): 67.5%; viability at 48 h, 25 ug (in vitro): 57%; viability at 48 h, 100 ug (in vitro): 50.1%; anti-proliferative activity against MDA-MB-231 (in words) (MDA-MB-231; SAR discussion): devoid of activity
COc1ccccc1C(=O)OCc1cc(=O)oc2cc(OC(C)=O)ccc12 [Compound 15, (7-Acetoxy-2-oxo-2H-chromen-4-yl)methyl 2-methoxybenzoate] | 115 ± 5.62 µg/mL (≈ 312 µM) | 17.1 ± 0.38 µM | 6.3 ± 0.38 µg/mL | 67.97% | 58.26% | 50.063% | 42.623% | 31.337% | 312 ± 5.62 µM | 74.9 ± 1.52 µM | 27.9 ± 1.52 µg/mL | 76.72% | 65.9% | 56.927% | 46.8873% | 37.745% | 86% | 78.2% | 68.2% | 60.1% | anti-proliferative activity against MCF-7 (in words) (MCF-7): moderate anti-proliferative activity; viability at 48 h, 100 ug (in vitro; [4]): 50.8%

More lines, main results first:

IC50 at 48 h (in vitro; [4]) | Compound | IC50 (MCF-7; MCF7, read-out: MCF-7 IC50) | IC50 (MCF-7; [1]) | % viability (MCF-7; MCF7, 0.4ug) | % viability (MCF-7; MCF7, 1.6ug) | % viability (MCF-7; MCF7, 6.3ug) | % viability (MCF-7; MCF7, 25ug) | % viability (MCF-7; MCF7, 100ug) | IC50 (MCF-10A) | IC50 (MDA-MB-231; [2]) | IC50 (MDA-MB-231; [3]) | % viability (MDA-MB-231; 0.4ug (log conc. -0.41)) | % viability (MDA-MB-231; 1.6ug (log conc. 0.19)) | % viability (MDA-MB-231; 6.25ug (log conc. 0.8)) | % viability (MDA-MB-231; 25ug (log conc. 1.4)) | % viability (MDA-MB-231; 100ug (log conc. 2)) | viability at 48 h, 0.4 ug (in vitro; [4]) | viability at 48 h, 1.6 ug (in vitro; [4]) | viability at 48 h, 6.25 ug (in vitro; [4]) | viability at 48 h, 25 ug (in vitro; [4]) | other results
122 ± 5.93 µg/mL (≈ 369 µM) | O=C(OCc1cc(=O)oc2cc(O)ccc12)c1ccc(Cl)cc1 [Compound 3, (7-Hydroxy-2-oxo-2H-chromen-4-yl)methyl 4-chlorobenzoate] | 36.6 ± 0.74 µM | 12.1 ± 0.74 µg/mL | 72.04% | 65.12% | 53.704% | 45.5556% | 35.679% | 369 ± 5.93 µM | 67.5 ± 1.22 µM | 22.3 ± 1.22 µg/mL | 76.24% | 65.98% | 58.685% | 49.2762% | 40.41% | 95.8% | 83.9% | 72.9% | 61.2% | viability at 48 h, 100 ug (in vitro; [4]): 52.7%; IC50 (EGFR; [5]): 0.974 µM; IC50 (EGFR; EGFR inhibition IC50): 0.974 ± 0.06 µM; EGFR %inh (EGFR; conc 0.01 (unit not given)): 17%; EGFR %inh (EGFR; conc 0.1 (unit not given)): 36%; EGFR %inh (EGFR; conc 1 (unit not given)): 60%; EGFR %inh (EGFR; conc 10 (unit not given)): 85%; Percentage above Reference IC50 (potency relative to erlotinib) (EGFR): 8.624%
41.6 ± 2.03 µg/mL (≈ 127 µM) | COc1ccccc1C(=O)OCc1cc(=O)oc2cc(O)ccc12 [Compound 4, (7-Hydroxy-2-oxo-2H-chromen-4-yl)methyl 2-methoxybenzoate] | 17.2 ± 0.34 µM | 5.6 ± 0.34 µg/mL | 68.369% | 58.612% | 49.509% | 38.9% | 30.9103% | 128 ± 2.03 µM | 6.4 ± 0.11 µM | 2.08 ± 0.11 µg/mL | 60.769% | 51.538% | 43.254% | 34.142% | 25.2071% | 76.8% | 69.5% | 61.1% | 53.6% | viability at 48 h, 100 ug (in vitro; [4]): 44.3%; IC50 (EGFR; [5]): 0.438 µM; IC50 (EGFR; EGFR inhibition IC50): 0.438 ± 0.027 µM; EGFR %inh (EGFR; conc 0.01 (unit not given)): 25%; EGFR %inh (EGFR; conc 0.1 (unit not given)): 46%; EGFR %inh (EGFR; conc 1 (unit not given)): 70%; EGFR %inh (EGFR; conc 10 (unit not given)): 87%; Percentage above Reference IC50 (potency relative to erlotinib) (EGFR): 19.178%
12.4 ± 0.6 µg/mL (≈ 22.8 µM) | COc1cccc2c1C(=O)c1c(O)c3c(c(O)c1C2=O)C[C@@](O)(C(=O)CO)C[C@@H]3O[C@H]1C[C@H](N)[C@H](O)[C@H](C)O1 [Doxorubicin, reference compound] | 5.6 ± 0.18 µM | 3.04 ± 0.18 µg/mL | 62.95% | 52.16% | 46.435% | 38.2693% | 28.946% | 22.8 ± 0.6 µM | 7.3 ± 0.22 µM | 3.98 ± 0.22 µg/mL |  |  |  | 40.9788% |  | 74% | 63.5% | 55.4% | 44.6% | % viability (MCF-7; MCF7, 0.4ug (log conc. -0.4089)): 62.9494%; % viability (MCF-7; MCF7, 1.6ug (log conc. 0.1931)): 52.1633%; % viability (MCF-7; MCF7, 6.25ug (log conc. 0.7959)): 46.4351%; % viability (MCF-7; MCF7, 100ug (log conc. 2)): 28.9458%; % viability (MCF-10A; MCF10a cells, 0.4ug, listed as Dox): 73.9934%; % viability (MCF-10A; MCF10a cells, 1.6ug, listed as Dox): 63.4983%; % viability (MCF-10A; MCF10a cells, 6.25ug (6.3ug), listed as Dox): 55.4455%; % viability (MCF-10A; MCF10a cells, 100ug, listed as Dox): 35.9076%; IC50 (MCF-10A; listed as DOX): 12.4 µM; viability at 48 h, 100 ug (in vitro; [4]): 35.9%; % viability (MDA-MB-231; 0.4ug (log conc. -0.41), listed as Dox): 63.56% and 63.5613%; % viability (MDA-MB-231; 1.6ug (log conc. 0.19), listed as Dox): 55.84% and 55.8373%; % viability (MDA-MB-231; 6.25ug (log conc. 0.8), listed as Dox): 46.58% and 46.5802%; % viability (MDA-MB-231; 100ug (log conc. 2), listed as Dox): 29.599% and 29.5991%
